Source: ChEMBL document CHEMBL3580639, “Bioactive Limonoid Constituents of Munronia henryi” (J Nat Prod, 2015)
Values after ≈ are worked out from the molar mass of the structure shown.

Legend:
[1] = tested on: Tobacco mosaic virus; experiment: (§1) Antiviral activity against 30 mins compound pre-treated TMV U1 infected on Nicotiana glutinosa leaves assessed as virus inactivation effect by measuring local lesion numbers after 3 to 4 days post virus inoculation by half-leaf method relative to untreated control; assay type: functional, organism-based
[2] = tested on: Tobacco mosaic virus; experiment: Antiviral activity against 30 mins compound pre-treated TMV U1 infected on Nicotiana glutinosa leaves assessed as virus inactivation effect by measuring local lesion numbers after 3 to 4 days post virus inoculation at 50 ug/ml by half-leaf method relative to untreated control; assay type: functional; conditions: U1, in Nicotiana glutinosa
[3] = tested on: Tobacco mosaic virus; experiment: Antiviral activity against TMV U1 infected on 20 mins compound treated fresh leaves from 5 to 6 growth stage Nicotiana glutinosa assessed as inhibition of virus growth at 50 ug/ml cultured at 25 degC for 72 hrs by half-leaf method; assay type: functional; conditions: U1, in Nicotiana glutinosa
[4] = tested on: SW480; experiment: Cytotoxicity against human SW480 cells incubated for 48 hrs by MTT assay; assay type: functional, cell-based; conditions: SW480, 48 h
[5] = tested on: Tobacco mosaic virus; experiment: Antiviral activity against 30 mins compound pre-treated TMV U1 infected on Nicotiana glutinosa leaves assessed as virus inactivation effect by measuring local lesion numbers after 3 to 4 days post virus inoculation at 50 ug/ml by half-leaf method; assay type: functional; conditions: U1, in Nicotiana glutinosa
[6] = tested on: HL-60; experiment: Cytotoxicity against human HL60 cells incubated for 48 hrs by MTT assay; assay type: functional, cell-based; conditions: HL-60, 48 h
[7] = tested on: MCF7; experiment: Cytotoxicity against human MCF7 cells incubated for 48 hrs by MTT assay; assay type: functional, cell-based; conditions: MCF7, 48 h
[8] = tested on: Tobacco mosaic virus; experiment: Antiviral activity against TMV U1 infected on compound smeared Nicotiana glutinosa leaves assessed as virus infection protective effect by measuring local lesion numbers after 3 to 4 days post virus inoculation at 200 ug/ml by half-leaf method; assay type: functional; conditions: U1, in Nicotiana glutinosa
[9] = tested on: Tobacco mosaic virus; experiment: Antiviral activity against 30 mins compound pre-treated TMV U1 infected on Nicotiana glutinosa leaves assessed as virus inactivation effect by measuring local lesion numbers after 3 to 4 days post virus inoculation at 20 ug/ml by half-leaf method relative to untreated control; assay type: functional; conditions: U1, in Nicotiana glutinosa
[10] = tested on: Tobacco mosaic virus; experiment: Antiviral activity against 30 mins compound pre-treated TMV U1 infected on Nicotiana glutinosa leaves assessed as virus inactivation effect by measuring local lesion numbers after 3 to 4 days post virus inoculation at 40 ug/ml by half-leaf method relative to untreated control; assay type: functional; conditions: U1, in Nicotiana glutinosa
[11] = tested on: Tobacco mosaic virus; experiment: Antiviral activity against 30 mins compound pre-treated TMV U1 infected on Nicotiana glutinosa leaves assessed as virus inactivation effect by measuring local lesion numbers after 3 to 4 days post virus inoculation at 30 ug/ml by half-leaf method relative to untreated control; assay type: functional; conditions: U1, in Nicotiana glutinosa
[12] = tested on: Tobacco mosaic virus; experiment: as §1, with “Potency index, ratio of IC50 for ningnanmycin to IC50 for test compound” for “Antiviral activity”; assay type: functional
[13] = tested on: A549; experiment: Cytotoxicity against human A549 cells incubated for 48 hrs by MTT assay; assay type: functional, cell-based; conditions: A549, 48 h
[14] = tested on: SMMC-7721; experiment: Cytotoxicity against human SMMC7721 cells incubated for 48 hrs by MTT assay; assay type: functional, cell-based; conditions: SMMC-7721, 48 h
[15] = tested on: Tobacco mosaic virus; experiment: Antiviral activity against 30 mins compound pre-treated TMV U1 infected on Nicotiana glutinosa leaves assessed as virus inactivation effect by measuring local lesion numbers after 3 to 4 days post virus inoculation at 10 ug/ml by half-leaf method relative to untreated control; assay type: functional; conditions: U1, in Nicotiana glutinosa
[16] = tested on: Tobacco mosaic virus; experiment: Antiviral activity against TMV U1 infected on Nicotiana glutinosa leaves smeared with virus before compound treatment assessed as virus infection curative effect by measuring local lesion numbers after 3 to 4 days post virus inoculation at 200 ug/ml by half-leaf method; assay type: functional; conditions: U1, in Nicotiana glutinosa
[17] = tested on: Tobacco mosaic virus; experiment: Antiviral activity against 30 mins compound pre-treated TMV U1 infected on Nicotiana glutinosa leaves assessed as virus inactivation effect by measuring local lesion numbers after 3 to 4 days post virus inoculation at 5 ug/ml by half-leaf method relative to untreated control; assay type: functional; conditions: U1, in Nicotiana glutinosa

| Compound | IC50 [1] [µg/mL] | inhibition at 50 µg/mL [2] [%] | inhibition at 50 µg/mL [3] [%] | IC50 [4] [µM] | inhibition at 50 µg/mL [5] [%] | IC50 [6] [µM] | IC50 [7] [µM] | inhibition at 200 µg/mL [8] [%] | inhibition at 20 µg/mL [9] [%] | inhibition at 40 µg/mL [10] [%] | inhibition at 30 µg/mL [11] [%] | Ratio IC50 [12] | IC50 [13] [µM] | IC50 [14] [µM] | inhibition at 10 µg/mL [15] [%] | inhibition at 200 µg/mL [16] [%] | inhibition at 5 µg/mL [17] [%] |
| --- | --- | --- | --- | --- | --- | --- | --- | --- | --- | --- | --- | --- | --- | --- | --- | --- | --- |
| CC(=O)O[C@@H]1[C@@H]2[C@@]3(C)C=CC(=O)OC(C)(C)[C@@H]3CC(=O)[C@@]2(C)[C@@]23O[C@@H]2C[C@@H](c2ccoc2)[C@]3(C)[C@H]1OC(C)=O | 19.6 (≈ 36.3 µM) | 95.6 | 98.9 | > 10 | 98.2 | > 10 | > 10 | 56.7 | 62.3 | 92.3 | 86.1 | 2 | > 10 | > 10 | 30.9 | 52.8 | 11.8 |
| CC(=O)O[C@@H]1[C@@H]2[C@@]3(C)[C@@H](OC(C)=O)CC(=O)OC(C)(C)[C@@H]3CC(=O)[C@@]2(C)[C@@]23O[C@@H]2C[C@@H](c2ccoc2)[C@]3(C)[C@H]1OC(C)=O | 20.4 (≈ 34 µM) | 93.9 | 97.6 | > 10 | 95.3 | > 10 | > 10 | 60.2 | 64.9 | 91.4 | 80.3 | – | > 10 | > 10 | 28.7 | 57.6 | 9.7 |
